This experiment relates to recombinant NL-RLuc virus (HIV NL4-3 with Renilla Luciferase gene) in MT-2 cells. Nature of the experiment: Inhibition of HIV replication (NL-RLuc virus, luciferase readout in MT-2 cells). Type of experiment: cell-based. As to conditions: MT2, 120 h. The text has this: Inhibition of HIV Replication:
A recombinant NL-RLuc proviral clone was constructed in which a section of the nef gene from NL4-3 was replaced with the Renilla Luciferase gene. This virus is fully infectious and can undergo multiple cycles of replication in cell culture. In addition, the luciferous reporter provides a simple and easy method for quantitating the extent of virus growth and consequently, the antiviral activity of test compounds. The plasmid pNLRLuc contains the proviral NL-Rluc DNA cloned into pUC18 at the PvuII site. The NL-RLuc virus was prepared by transfection of 293T cells with the plasmid pNLRLuc. Transfections were performed using the LipofectAMINE PLUS kit from Invitrogen (Carlsbad, Calif.) according to the manufacturer and the virus generated was titered in MT-2 cells. For susceptibility analyses, the titrated virus was used to infect MT-2 cells in the presence of compound, and after 5 days of incubation, cells were processed and quantitated for virus growth by the amount of expressed luciferase. Assay media was RPMI 1640 supplemented with 10% heat inactivated fetal bovine serum (FBS), 100 units/ml penicillin G/100 units/ml streptomycin, 10 mM HEPES buffer pH 7.55 and 2 mM L-glutamine. The results from at least 2 experiments were used to calculate the EC50 values. Luciferase was quantitated using the Dual Luciferase kit from Promega (Madison, Wis.). Susceptibility of viruses to compounds was determined by incubation in the presence of serial dilutions of the compound. The 50% effective concentration (EC50) was calculated by using the exponential form of the median effect equation where (Fa)=1/[1+(ED50/drug conc.)^m](Johnson V A, Byington R T. Infectivity Assay. In Techniques in HIV Research. ed. Aldovini A, Walker BD. 71-76. New York: Stockton Press. 1990). Activity equal to A refers to a compound having an EC50≤100 nM, while B and C denote compounds having an EC50 between 100 nM and 1 uM (B) or >1 uM (C).

Read-outs that look alike come from different tables or passages of the source.

Regarding `Cc1nc(C)c([C@H](OC(C)(C)C)C(=O)O)c(N2CCC(C)(C)CC2)c1-c1ccc2c(c1)CCN(CC1CCCOC1)C2` (stereo partly drawn) [Compound 1, (2S)-2-(tert-butoxy)-2-(4-(4,4-dimethylpiperidin-1-yl)-2,6-dimethyl-5-(2-((tetrahydro-2H-pyran-3-yl)methyl)-1,2,3,4-tetrahydroisoquinolin-6-yl)pyridin-3-yl)acetic acid], the EC50 is < 0.1 µM (read-out: Activity) and 0.028 µM (read-out: EC50 μM).
As for `Cc1nc(C)c([C@H](OC(C)(C)C)C(=O)O)c(N2CCC(C)(C)CC2)c1-c1ccc2c(c1)CCN(CC1C[C@@H]3CC[C@H]1C3)C2` (stereo partly drawn) [Compound 2, (2S)-2-(5-(2-((1S,4R)-bicyclo[2.2.1]heptan-2-ylmethyl)-1,2,3,4-tetrahydroisoquinolin-6-yl)-4-(4,4-dimethylpiperidin-1-yl)-2,6-dimethylpyridin-3-yl)-2-(tert-butoxy)acetic acid], where the note is “read-out: Activity”, the EC50 was < 0.1 µM.
For the molecule `Cc1nc(C)c([C@H](OC(C)(C)C)C(=O)O)c(N2CCC(C)(C)CC2)c1-c1ccc2c(c1)CCN(CC1CCOC(C)(C)C1)C2` (stereo partly drawn) [Compound 3, (2S)-2-(tert-butoxy)-2-(4-(4,4-dimethylpiperidin-1-yl)-5-(2-((2,2-dimethyltetrahydro-2H-pyran-4-yl)methyl)-1,2,3,4-tetrahydroisoquinolin-6-yl)-2,6-dimethylpyridin-3-yl)acetic acid], under “read-out: Activity”, the EC50 is < 0.1 µM.
`Cc1nc(C)c([C@H](OC(C)(C)C)C(=O)O)c(N2CCC(C)(C)CC2)c1-c1ccc2c(c1)CCN(CC1CC1)C2` [Compound 4, (S)-2-(tert-butoxy)-2-(5-(2-(cyclopropylmethyl)-1,2,3,4-tetrahydroisoquinolin-6-yl)-4-(4,4-dimethylpiperidin-1-yl)-2,6-dimethylpyridin-3-yl)acetic acid]: the EC50 (read-out: Activity) was < 0.1 µM.
For `Cc1nc(C)c([C@H](OC(C)(C)C)C(=O)O)c(N2CCC(C)(C)CC2)c1-c1ccc2c(c1)CCN(CC1CCCCC1)C2` [Compound 5, (S)-2-(tert-butoxy)-2-(5-(2-(cyclohexylmethyl)-1,2,3,4-tetrahydroisoquinolin-6-yl)-4-(4,4-dimethylpiperidin-1-yl)-2,6-dimethylpyridin-3-yl)acetic acid], where the note is “read-out: Activity”, the EC50 is < 0.1 µM.
With `Cc1nc(C)c([C@H](OC(C)(C)C)C(=O)O)c(N2CCC(C)(C)CC2)c1-c1ccc2c(c1)CCN(C[C@H]1C[C@H]3C=C[C@@H]1C3)C2` [Compound 6, (S)-2-(5-(2-((1S,2S,4S)-bicyclo[2.2.1]hept-5-en-2-ylmethyl)-1,2,3,4-tetrahydroisoquinolin-6-yl)-4-(4,4-dimethylpiperidin-1-yl)-2,6-dimethylpyridin-3-yl)-2-(tert-butoxy)acetic acid], where the note is “read-out: Activity”, the EC50 was < 0.1 µM.
As to `Cc1nc(C)c([C@H](OC(C)(C)C)C(=O)O)c(N2CCC(C)(C)CC2)c1-c1ccc2c(c1)CCN(C[C@H]1C[C@@H]3C=C[C@H]1C3)C2` [Compound 7, (S)-2-(5-(2-((1R,2S,4R)-bicyclo[2.2.1]hept-5-en-2-ylmethyl)-1,2,3,4-tetrahydroisoquinolin-6-yl)-4-(4,4-dimethylpiperidin-1-yl)-2,6-dimethylpyridin-3-yl)-2-(tert-butoxy)acetic acid], the EC50 (read-out: Activity) was < 0.1 µM.
Turning to `Cc1ncsc1CN1CCc2cc(-c3c(C)nc(C)c([C@H](OC(C)(C)C)C(=O)O)c3N3CCC(C)(C)CC3)ccc2C1` [Compound 8, (S)-2-(tert-butoxy)-2-(4-(4,4-dimethylpiperidin-1-yl)-2,6-dimethyl-5-(2-((4-methylthiazol-5-yl)methyl)-1,2,3,4-tetrahydroisoquinolin-6-yl)pyridin-3-yl)acetic acid], the EC50 reads like this: (read-out: Activity) < 0.1 µM; (read-out: EC50 μM) 0.002 µM.
For the molecule `Cc1nc(C)c([C@H](OC(C)(C)C)C(=O)O)c(N2CCC(C)(C)CC2)c1-c1ccc2c(c1)CCN(Cc1nccs1)C2` [Compound 9, (S)-2-(tert-butoxy)-2-(4-(4,4-dimethylpiperidin-1-yl)-2,6-dimethyl-5-(2-(thiazol-2-ylmethyl)-1,2,3,4-tetrahydroisoquinolin-6-yl)pyridin-3-yl)acetic acid], the EC50 (read-out: Activity) is < 0.1 µM.
Still for that read-out and setting: in the case of `Cc1nc(C)c([C@H](OC(C)(C)C)C(=O)O)c(N2CCC(C)(C)CC2)c1-c1ccc2c(c1)CCN(Cc1cscn1)C2` [Compound 10, (S)-2-(tert-butoxy)-2-(4-(4,4-dimethylpiperidin-1-yl)-2,6-dimethyl-5-(2-(thiazol-4-ylmethyl)-1,2,3,4-tetrahydroisoquinolin-6-yl)pyridin-3-yl)acetic acid] it was < 0.1 µM; in that of `Cc1nc(C)c([C@H](OC(C)(C)C)C(=O)O)c(N2CCC(C)(C)CC2)c1-c1ccc2c(c1)CCN(Cc1cccnc1)C2` [Compound 11, (S)-2-(tert-butoxy)-2-(4-(4,4-dimethylpiperidin-1-yl)-2,6-dimethyl-5-(2-(pyridin-3-ylmethyl)-1,2,3,4-tetrahydroisoquinolin-6-yl)pyridin-3-yl)acetic acid], < 0.1 µM; in that of `Cc1nc(C)c([C@H](OC(C)(C)C)C(=O)O)c(N2CCC(C)(C)CC2)c1-c1ccc2c(c1)CCN(Cc1ccncc1)C2` [Compound 12, (S)-2-(tert-butoxy)-2-(4-(4,4-dimethylpiperidin-1-yl)-2,6-dimethyl-5-(2-(pyridin-4-ylmethyl)-1,2,3,4-tetrahydroisoquinolin-6-yl)pyridin-3-yl)acetic acid], < 0.1 µM.
Take `Cc1cc(CN2CCc3cc(-c4c(C)nc(C)c([C@H](OC(C)(C)C)C(=O)O)c4N4CCC(C)(C)CC4)ccc3C2)no1` [Compound 13, (S)-2-(tert-butoxy)-2-(4-(4,4-dimethylpiperidin-1-yl)-2,6-dimethyl-5-(2-((5-methylisoxazol-3-yl)methyl)-1,2,3,4-tetrahydroisoquinolin-6-yl)pyridin-3-yl)acetic acid]: for the setting “read-out: Activity”, the EC50 is < 0.1 µM.
Consider `Cc1nc(C)c([C@H](OC(C)(C)C)C(=O)O)c(N2CCC(C)(C)CC2)c1-c1ccc2c(c1)CCN(Cc1nc(-c3ccccc3)oc1C)C2` [Compound 14, (S)-2-(tert-butoxy)-2-(4-(4,4-dimethylpiperidin-1-yl)-2,6-dimethyl-5-(2-((5-methyl-2-phenyloxazol-4-yl)methyl)-1,2,3,4-tetrahydroisoquinolin-6-yl)pyridin-3-yl)acetic acid], for which the EC50 by setting is: (read-out: Activity) < 0.1 µM; (read-out: EC50 μM) 0.016 µM.
On to `CCn1cncc1CN1CCc2cc(-c3c(C)nc(C)c([C@H](OC(C)(C)C)C(=O)O)c3N3CCC(C)(C)CC3)ccc2C1` [Compound 15, (S)-2-(tert-butoxy)-2-(4-(4,4-dimethylpiperidin-1-yl)-5-(2-((1-ethyl-1H-imidazol-5-yl)methyl)-1,2,3,4-tetrahydroisoquinolin-6-yl)-2,6-dimethylpyridin-3-yl)acetic acid], for which the EC50 (read-out: Activity) is < 0.1 µM.
As for `Cc1cc(CN2CCc3cc(-c4c(C)nc(C)c([C@H](OC(C)(C)C)C(=O)O)c4N4CCC(C)(C)CC4)ccc3C2)n(C)n1` [Compound 16, (S)-2-(tert-butoxy)-2-(5-(2-((1,3-dimethyl-1H-pyrazol-5-yl)methyl)-1,2,3,4-tetrahydroisoquinolin-6-yl)-4-(4,4-dimethylpiperidin-1-yl)-2,6-dimethylpyridin-3-yl)acetic acid], where the note is “read-out: Activity”, the EC50 was < 0.1 µM.
With `Cc1nc(C)c([C@H](OC(C)(C)C)C(=O)O)c(N2CCC(C)(C)CC2)c1-c1ccc2c(c1)CCN(Cc1ncc[nH]1)C2` [Compound 17, (S)-2-(5-(2-((1H-imidazol-2-yl)methyl)-1,2,3,4-tetrahydroisoquinolin-6-yl)-4-(4,4-dimethylpiperidin-1-yl)-2,6-dimethylpyridin-3-yl)-2-(tert-butoxy)acetic acid], the EC50 was 0.1 to 1 µM (read-out: Activity) and 0.544 µM (read-out: EC50 μM).
Regarding `Cc1nc(CN2CCc3cc(-c4c(C)nc(C)c([C@H](OC(C)(C)C)C(=O)O)c4N4CCC(C)(C)CC4)ccc3C2)c(C)o1` [Compound 18, (S)-2-(tert-butoxy)-2-(5-(2-((2,5-dimethyloxazol-4-yl)methyl)-1,2,3,4-tetrahydroisoquinolin-6-yl)-4-(4,4-dimethylpiperidin-1-yl)-2,6-dimethylpyridin-3-yl)acetic acid], the EC50 (read-out: Activity) was < 0.1 µM.
For `Cc1nc(C)c([C@H](OC(C)(C)C)C(=O)O)c(N2CCC(C)(C)CC2)c1-c1ccc2c(c1)CCN(Cc1cnn(-c3ccc(F)cc3)c1)C2` [Compound 19, (S)-2-(tert-butoxy)-2-(4-(4,4-dimethylpiperidin-1-yl)-5-(2-((1-(4-fluorophenyl)-1H-pyrazol-4-yl)methyl)-1,2,3,4-tetrahydroisoquinolin-6-yl)-2,6-dimethylpyridin-3-yl)acetic acid], the EC50 (read-out: Activity) is < 0.1 µM.
Still for that read-out and setting: in the case of `Cc1nc(C)c([C@H](OC(C)(C)C)C(=O)O)c(N2CCC(C)(C)CC2)c1-c1ccc2c(c1)CCN(Cc1cnc(-c3ccccc3)[nH]1)C2` [Compound 20, (S)-2-(tert-butoxy)-2-(4-(4,4-dimethylpiperidin-1-yl)-2,6-dimethyl-5-(2-((2-phenyl-1H-imidazol-5-yl)methyl)-1,2,3,4-tetrahydroisoquinolin-6-yl)pyridin-3-yl)acetic acid] it was < 0.1 µM.

(Values after US20190152957A1, “PYRIDIN-3-YL ACETIC ACID DERIVATIVES AS INHIBITORS OF HUMAN IMMUNODEFICIENCY VIRUS REPLICATION” (ViiV HEALTHCARE UK (NO.5) LIMITED, priority 2016, published 2019).)
